From the kinase profiling compilation of Christmann-Franck et al. (2016) come the findings set out here.

The structures appear in SMILES notation.

In general, residual activity refers to the signal under treatment as a percentage of the control signal.

Sequence of CAMK2B (human) (Q13554 whole entry, looked up): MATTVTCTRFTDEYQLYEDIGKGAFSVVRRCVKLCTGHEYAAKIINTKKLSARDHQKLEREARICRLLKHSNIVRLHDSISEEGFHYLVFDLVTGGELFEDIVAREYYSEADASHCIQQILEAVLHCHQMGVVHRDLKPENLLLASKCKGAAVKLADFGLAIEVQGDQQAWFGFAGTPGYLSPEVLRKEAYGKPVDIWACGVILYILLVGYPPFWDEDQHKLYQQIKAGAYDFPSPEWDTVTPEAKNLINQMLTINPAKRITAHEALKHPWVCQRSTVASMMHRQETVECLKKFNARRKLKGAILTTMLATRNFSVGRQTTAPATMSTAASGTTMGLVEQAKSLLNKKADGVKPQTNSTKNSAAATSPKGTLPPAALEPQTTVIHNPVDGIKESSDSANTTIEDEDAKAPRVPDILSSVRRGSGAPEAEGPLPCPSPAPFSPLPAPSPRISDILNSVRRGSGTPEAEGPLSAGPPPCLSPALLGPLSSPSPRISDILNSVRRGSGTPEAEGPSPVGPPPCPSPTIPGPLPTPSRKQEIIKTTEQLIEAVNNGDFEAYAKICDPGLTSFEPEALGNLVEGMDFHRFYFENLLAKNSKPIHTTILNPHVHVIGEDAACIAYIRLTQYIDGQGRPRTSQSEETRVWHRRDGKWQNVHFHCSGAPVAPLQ
Sequence of CAMK4 (human) (Q16566 whole entry, looked up): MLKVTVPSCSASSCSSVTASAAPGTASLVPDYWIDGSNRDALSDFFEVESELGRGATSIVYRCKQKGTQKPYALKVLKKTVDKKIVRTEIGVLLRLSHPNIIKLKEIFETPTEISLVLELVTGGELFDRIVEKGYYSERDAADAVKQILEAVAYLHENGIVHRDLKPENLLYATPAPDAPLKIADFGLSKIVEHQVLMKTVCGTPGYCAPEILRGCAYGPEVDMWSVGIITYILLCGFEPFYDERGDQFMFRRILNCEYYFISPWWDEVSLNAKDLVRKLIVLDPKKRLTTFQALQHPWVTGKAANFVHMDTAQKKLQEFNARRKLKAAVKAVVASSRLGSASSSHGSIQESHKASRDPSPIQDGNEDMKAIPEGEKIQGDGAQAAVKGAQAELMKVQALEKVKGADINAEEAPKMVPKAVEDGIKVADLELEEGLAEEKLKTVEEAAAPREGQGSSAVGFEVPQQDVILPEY
Sequence of FYN (human) (P06241 whole entry, looked up): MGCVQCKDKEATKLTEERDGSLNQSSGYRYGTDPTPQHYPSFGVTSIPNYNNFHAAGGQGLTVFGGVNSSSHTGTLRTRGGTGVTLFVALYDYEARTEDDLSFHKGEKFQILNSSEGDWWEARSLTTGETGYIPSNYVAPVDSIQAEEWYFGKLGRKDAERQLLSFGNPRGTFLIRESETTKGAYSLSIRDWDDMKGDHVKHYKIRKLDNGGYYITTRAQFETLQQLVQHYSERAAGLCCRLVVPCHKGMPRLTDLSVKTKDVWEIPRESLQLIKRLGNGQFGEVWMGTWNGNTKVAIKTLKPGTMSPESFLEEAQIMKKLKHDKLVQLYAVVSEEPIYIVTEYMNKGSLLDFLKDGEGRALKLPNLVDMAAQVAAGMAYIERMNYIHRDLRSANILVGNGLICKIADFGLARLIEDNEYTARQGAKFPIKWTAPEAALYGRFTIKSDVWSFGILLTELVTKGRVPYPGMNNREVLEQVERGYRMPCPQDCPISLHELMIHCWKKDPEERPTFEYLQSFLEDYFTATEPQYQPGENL

The target in one assay is TEC (human) (UniProt P42680). Nature of the assay: radiometric filter-binding kinase assay, Kinase HotSpot. The settings on record: compound 0.5 µM; ATP 10 µM.
Take `Nc1nnc2[nH]c3ccccc3nc1-2`: the residual activity is 108%.

Regarding `Cn1sc(=O)n(Cc2ccccc2)c1=O`, the residual activity was 117%.

As for `CN(C)C[C@H]1CCn2c(c(C3=C(c4cn(C)c5ccccc45)C(=O)NC3=O)c3ccccc32)C1`, the residual activity was found to be 108%.

The target of a further assay is TNK2 (human) (UniProt Q07912). The description is as above. The following applies: compound 0.5 µM; ATP 10 µM.
For the compound `Nc1nnc2[nH]c3ccccc3nc1-2`, the residual activity was determined as 101%.

Turning to `Cn1sc(=O)n(Cc2ccccc2)c1=O`, the residual activity worked out at 101%.

For the compound `CN(C)C[C@H]1CCn2c(c(C3=C(c4cn(C)c5ccccc45)C(=O)NC3=O)c3ccccc32)C1`, the residual activity turned out to be 96.3%.

The next assay concerns the target PDGFRB (human) (UniProt P09619). The description is as above. The following applies: compound 0.5 µM; ATP 10 µM.
Turning to `Nc1nnc2[nH]c3ccccc3nc1-2`, the residual activity was found to be 98.1%.

In the case of `Cn1sc(=O)n(Cc2ccccc2)c1=O`, the residual activity stood at 87.3%.

Take `CN(C)C[C@H]1CCn2c(c(C3=C(c4cn(C)c5ccccc45)C(=O)NC3=O)c3ccccc32)C1`: the residual activity is 102%.

In another assay the target is STK17A (human) (UniProt Q9UEE5). The assay is described as above. The following applies: compound 0.5 µM; ATP 10 µM.
Sequence of STK17A (human) (Q9UEE5 whole entry, looked up): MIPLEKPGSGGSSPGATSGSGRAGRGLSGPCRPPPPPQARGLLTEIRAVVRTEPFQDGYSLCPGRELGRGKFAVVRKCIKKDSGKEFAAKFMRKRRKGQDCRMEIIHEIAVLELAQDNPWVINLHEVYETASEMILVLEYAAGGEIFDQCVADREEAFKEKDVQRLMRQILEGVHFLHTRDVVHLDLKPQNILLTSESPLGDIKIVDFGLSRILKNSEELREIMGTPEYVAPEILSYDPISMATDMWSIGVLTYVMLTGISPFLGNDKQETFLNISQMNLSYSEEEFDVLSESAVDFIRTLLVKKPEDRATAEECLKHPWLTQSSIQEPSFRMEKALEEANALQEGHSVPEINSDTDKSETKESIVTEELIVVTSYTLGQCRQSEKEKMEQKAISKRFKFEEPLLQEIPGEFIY
Turning to `Nc1nnc2[nH]c3ccccc3nc1-2`, the residual activity came to 95.2%.

As to `Cn1sc(=O)n(Cc2ccccc2)c1=O`, the residual activity stood at 101%.

As to `CN(C)C[C@H]1CCn2c(c(C3=C(c4cn(C)c5ccccc45)C(=O)NC3=O)c3ccccc32)C1`, the residual activity came to 87.6%.

The next assay addresses CAMK2B (human) (UniProt Q13554). The assay is described as above. The following applies: compound 0.5 µM; ATP 10 µM.
Consider `Nc1nnc2[nH]c3ccccc3nc1-2`, for which the residual activity turned out to be 90%.

Regarding `Cn1sc(=O)n(Cc2ccccc2)c1=O`, the residual activity was 102%.

As for `CN(C)C[C@H]1CCn2c(c(C3=C(c4cn(C)c5ccccc45)C(=O)NC3=O)c3ccccc32)C1`, the residual activity was 96.9%.

The next assay concerns the target CAMK4 (human) (UniProt Q16566). Described as above. The following applies: compound 0.5 µM; ATP 10 µM.
For `Nc1nnc2[nH]c3ccccc3nc1-2`, the residual activity came to 104%.

On to `Cn1sc(=O)n(Cc2ccccc2)c1=O`, for which the residual activity is 93.2%.

For `CN(C)C[C@H]1CCn2c(c(C3=C(c4cn(C)c5ccccc45)C(=O)NC3=O)c3ccccc32)C1`, the residual activity was 95.5%.

For the next assay, the target named is TTK (human) (UniProt P33981). Described as above. The following applies: compound 0.5 µM; ATP 10 µM.
Turning to `Nc1nnc2[nH]c3ccccc3nc1-2`, the residual activity stood at 102%.

Consider `Cn1sc(=O)n(Cc2ccccc2)c1=O`, for which the residual activity stood at 101%.

As for `CN(C)C[C@H]1CCn2c(c(C3=C(c4cn(C)c5ccccc45)C(=O)NC3=O)c3ccccc32)C1`, the residual activity was determined as 105%.

The next assay deals with CHUK (human) (UniProt O15111). The description is as above. The following applies: compound 0.5 µM; ATP 10 µM.
Sequence of CHUK (human) (O15111 whole entry, looked up): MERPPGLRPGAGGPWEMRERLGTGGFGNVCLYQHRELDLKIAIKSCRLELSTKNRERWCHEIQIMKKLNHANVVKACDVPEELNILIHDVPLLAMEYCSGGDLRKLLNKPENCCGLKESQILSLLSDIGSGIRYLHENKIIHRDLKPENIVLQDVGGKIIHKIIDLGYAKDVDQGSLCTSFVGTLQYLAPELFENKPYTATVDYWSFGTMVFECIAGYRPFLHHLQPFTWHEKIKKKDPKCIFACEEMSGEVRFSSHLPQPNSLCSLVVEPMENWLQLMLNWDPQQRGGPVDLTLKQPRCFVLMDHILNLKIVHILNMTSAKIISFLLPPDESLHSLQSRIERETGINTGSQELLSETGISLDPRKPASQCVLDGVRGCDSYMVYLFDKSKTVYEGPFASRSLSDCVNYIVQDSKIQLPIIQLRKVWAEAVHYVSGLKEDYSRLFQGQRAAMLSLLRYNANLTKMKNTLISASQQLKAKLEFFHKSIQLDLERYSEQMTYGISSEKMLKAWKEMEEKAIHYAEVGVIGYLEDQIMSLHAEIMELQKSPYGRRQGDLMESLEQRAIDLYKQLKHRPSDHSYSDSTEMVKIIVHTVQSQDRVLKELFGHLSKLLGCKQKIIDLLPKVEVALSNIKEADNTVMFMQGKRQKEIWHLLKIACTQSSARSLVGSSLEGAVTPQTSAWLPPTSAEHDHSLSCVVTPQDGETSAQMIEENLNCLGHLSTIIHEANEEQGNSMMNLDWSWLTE
Take `Nc1nnc2[nH]c3ccccc3nc1-2`: the residual activity was found to be 85.9%.

Consider `Cn1sc(=O)n(Cc2ccccc2)c1=O`, for which the residual activity turned out to be 96.2%.

As for `CN(C)C[C@H]1CCn2c(c(C3=C(c4cn(C)c5ccccc45)C(=O)NC3=O)c3ccccc32)C1`, the residual activity worked out at 103%.

In another assay the target is MAP4K4 (human) (UniProt O95819). The description is as above. The following applies: compound 0.5 µM; ATP 10 µM.
Sequence of MAP4K4 (human) (O95819 whole entry, looked up): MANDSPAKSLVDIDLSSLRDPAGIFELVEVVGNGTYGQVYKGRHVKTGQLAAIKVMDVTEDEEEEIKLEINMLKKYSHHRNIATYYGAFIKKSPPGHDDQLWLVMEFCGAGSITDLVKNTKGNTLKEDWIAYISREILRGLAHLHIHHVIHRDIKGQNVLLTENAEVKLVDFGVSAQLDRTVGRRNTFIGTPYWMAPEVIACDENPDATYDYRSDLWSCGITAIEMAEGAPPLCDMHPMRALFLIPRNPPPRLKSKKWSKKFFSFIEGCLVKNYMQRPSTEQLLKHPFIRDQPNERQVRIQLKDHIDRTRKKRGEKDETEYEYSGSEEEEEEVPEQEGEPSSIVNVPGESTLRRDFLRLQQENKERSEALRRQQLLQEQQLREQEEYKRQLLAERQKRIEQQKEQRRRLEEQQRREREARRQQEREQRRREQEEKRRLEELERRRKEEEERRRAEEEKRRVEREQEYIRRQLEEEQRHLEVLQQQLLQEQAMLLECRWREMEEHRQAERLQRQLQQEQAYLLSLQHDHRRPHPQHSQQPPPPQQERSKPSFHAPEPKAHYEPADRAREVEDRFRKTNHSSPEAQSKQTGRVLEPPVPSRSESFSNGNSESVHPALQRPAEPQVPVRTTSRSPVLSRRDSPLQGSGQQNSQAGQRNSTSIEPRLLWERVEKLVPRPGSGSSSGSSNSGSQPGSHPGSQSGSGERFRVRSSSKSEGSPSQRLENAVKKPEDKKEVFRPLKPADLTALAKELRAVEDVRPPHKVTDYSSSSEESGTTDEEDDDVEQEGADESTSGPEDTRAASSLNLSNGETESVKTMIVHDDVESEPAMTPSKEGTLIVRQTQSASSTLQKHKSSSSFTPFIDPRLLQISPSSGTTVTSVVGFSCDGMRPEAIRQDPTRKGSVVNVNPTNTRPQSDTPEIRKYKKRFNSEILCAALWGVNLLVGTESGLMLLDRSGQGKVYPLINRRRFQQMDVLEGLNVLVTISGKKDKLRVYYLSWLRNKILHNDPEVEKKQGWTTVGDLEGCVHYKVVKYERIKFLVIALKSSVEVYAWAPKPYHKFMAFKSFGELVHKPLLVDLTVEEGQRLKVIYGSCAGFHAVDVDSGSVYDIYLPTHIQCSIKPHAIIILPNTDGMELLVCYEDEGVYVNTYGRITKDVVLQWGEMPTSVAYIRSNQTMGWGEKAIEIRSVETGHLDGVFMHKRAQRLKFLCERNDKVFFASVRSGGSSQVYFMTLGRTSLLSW
`Nc1nnc2[nH]c3ccccc3nc1-2`: the residual activity was determined as 76.2%.

Take `Cn1sc(=O)n(Cc2ccccc2)c1=O`: the residual activity worked out at 97%.

In the case of `CN(C)C[C@H]1CCn2c(c(C3=C(c4cn(C)c5ccccc45)C(=O)NC3=O)c3ccccc32)C1`, the residual activity stood at 82.5%.

The target in the next assay is TBK1 (human) (UniProt Q9UHD2). Described as above. The settings on record: compound 0.5 µM; ATP 10 µM.
For the compound `Nc1nnc2[nH]c3ccccc3nc1-2`, the residual activity was determined as 92%.

Regarding `Cn1sc(=O)n(Cc2ccccc2)c1=O`, the residual activity was 102%.

As for `CN(C)C[C@H]1CCn2c(c(C3=C(c4cn(C)c5ccccc45)C(=O)NC3=O)c3ccccc32)C1`, the residual activity was found to be 91.4%.

The target in the next assay is DCLK2 (human) (UniProt Q8N568). Described as above. The following applies: compound 0.5 µM; ATP 10 µM.
`Nc1nnc2[nH]c3ccccc3nc1-2`: the residual activity stood at 94.6%.

`Cn1sc(=O)n(Cc2ccccc2)c1=O`: the residual activity is 98.5%.

Regarding `CN(C)C[C@H]1CCn2c(c(C3=C(c4cn(C)c5ccccc45)C(=O)NC3=O)c3ccccc32)C1`, the residual activity is 97.8%.

The target in the next assay is PRKCA (human) (UniProt P17252). The description is as above. The settings on record: compound 0.5 µM; ATP 10 µM.
Consider `Nc1nnc2[nH]c3ccccc3nc1-2`, for which the residual activity turned out to be 71%.

For the compound `Cn1sc(=O)n(Cc2ccccc2)c1=O`, the residual activity came to 71.8%.

Take `CN(C)C[C@H]1CCn2c(c(C3=C(c4cn(C)c5ccccc45)C(=O)NC3=O)c3ccccc32)C1`: the residual activity was determined as 2.58%.

Another assay concerns the target FYN (human) (UniProt P06241). The assay is described as above. The settings on record: compound 0.5 µM; ATP 10 µM.
Regarding `Nc1nnc2[nH]c3ccccc3nc1-2`, the residual activity worked out at 96.1%.

On to `Cn1sc(=O)n(Cc2ccccc2)c1=O`, for which the residual activity came out at 105%.

On to `CN(C)C[C@H]1CCn2c(c(C3=C(c4cn(C)c5ccccc45)C(=O)NC3=O)c3ccccc32)C1`, for which the residual activity worked out at 92.8%.

The target in another assay is PTK2B (human) (UniProt Q14289). The description is as above. The settings on record: compound 0.5 µM; ATP 10 µM.
With `Nc1nnc2[nH]c3ccccc3nc1-2`, the residual activity was 92%.

Consider `Cn1sc(=O)n(Cc2ccccc2)c1=O`, for which the residual activity stood at 91%.

In the case of `CN(C)C[C@H]1CCn2c(c(C3=C(c4cn(C)c5ccccc45)C(=O)NC3=O)c3ccccc32)C1`, the residual activity was found to be 95.5%.

In another assay the target is AKT3 (human) (UniProt Q9Y243). Described as above. The settings on record: compound 0.5 µM; ATP 10 µM.
Sequence of AKT3 (human) (Q9Y243 whole entry, looked up): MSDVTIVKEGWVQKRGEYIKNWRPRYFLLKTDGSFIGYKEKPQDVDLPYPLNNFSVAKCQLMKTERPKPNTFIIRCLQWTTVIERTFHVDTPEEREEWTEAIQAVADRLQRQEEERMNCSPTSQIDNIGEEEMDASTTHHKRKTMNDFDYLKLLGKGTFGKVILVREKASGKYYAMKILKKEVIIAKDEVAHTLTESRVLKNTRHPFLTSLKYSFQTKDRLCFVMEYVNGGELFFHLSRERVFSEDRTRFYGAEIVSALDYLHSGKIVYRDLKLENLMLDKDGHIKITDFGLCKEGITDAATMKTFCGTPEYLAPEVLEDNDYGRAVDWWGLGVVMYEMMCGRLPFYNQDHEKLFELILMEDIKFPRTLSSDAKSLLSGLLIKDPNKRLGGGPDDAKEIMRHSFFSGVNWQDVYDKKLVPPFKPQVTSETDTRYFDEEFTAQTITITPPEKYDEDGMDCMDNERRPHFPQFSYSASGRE
As for `Nc1nnc2[nH]c3ccccc3nc1-2`, the residual activity was found to be 95.3%.

For the compound `Cn1sc(=O)n(Cc2ccccc2)c1=O`, the residual activity amounted to 96.6%.

With `CN(C)C[C@H]1CCn2c(c(C3=C(c4cn(C)c5ccccc45)C(=O)NC3=O)c3ccccc32)C1`, the residual activity stood at 56.3%.

The target of the next assay is TAOK1 (human) (UniProt Q7L7X3). Described as above. The settings on record: compound 0.5 µM; ATP 10 µM.
Take `Nc1nnc2[nH]c3ccccc3nc1-2`: the residual activity was determined as 101%.

Take `Cn1sc(=O)n(Cc2ccccc2)c1=O`: the residual activity was 88.9%.

Consider `CN(C)C[C@H]1CCn2c(c(C3=C(c4cn(C)c5ccccc45)C(=O)NC3=O)c3ccccc32)C1`, for which the residual activity stood at 93%.

Another assay concerns the target PRKCE (human) (UniProt Q02156). The description is as above. The settings on record: compound 0.5 µM; ATP 10 µM.
Turning to `Nc1nnc2[nH]c3ccccc3nc1-2`, the residual activity turned out to be 86.4%.

With `Cn1sc(=O)n(Cc2ccccc2)c1=O`, the residual activity is 94.8%.

For `CN(C)C[C@H]1CCn2c(c(C3=C(c4cn(C)c5ccccc45)C(=O)NC3=O)c3ccccc32)C1`, the residual activity was found to be 2.73%.

The next assay has as its target PAK3 (human) (UniProt O75914). The assay is described as above. The following applies: compound 0.5 µM; ATP 10 µM.
As to `Nc1nnc2[nH]c3ccccc3nc1-2`, the residual activity was found to be 98.3%.

For `Cn1sc(=O)n(Cc2ccccc2)c1=O`, the residual activity was 100%.

With `CN(C)C[C@H]1CCn2c(c(C3=C(c4cn(C)c5ccccc45)C(=O)NC3=O)c3ccccc32)C1`, the residual activity came to 102%.

The next assay has as its target PTK2 (human) (UniProt Q05397). The assay is described as above. The following applies: compound 0.5 µM; ATP 10 µM.
As to `Nc1nnc2[nH]c3ccccc3nc1-2`, the residual activity turned out to be 94.6%.

Consider `Cn1sc(=O)n(Cc2ccccc2)c1=O`, for which the residual activity is 99.5%.

In the case of `CN(C)C[C@H]1CCn2c(c(C3=C(c4cn(C)c5ccccc45)C(=O)NC3=O)c3ccccc32)C1`, the residual activity is 95.9%.

For a further assay, the target named is CDK5 CDK5R1 p25 (human) (UniProt Q00535+Q15078). The assay is described as above. The following applies: compound 0.5 µM; ATP 10 µM.
With `Nc1nnc2[nH]c3ccccc3nc1-2`, the residual activity turned out to be 85.4%.

For the compound `Cn1sc(=O)n(Cc2ccccc2)c1=O`, the residual activity stood at 103%.

On to `CN(C)C[C@H]1CCn2c(c(C3=C(c4cn(C)c5ccccc45)C(=O)NC3=O)c3ccccc32)C1`, for which the residual activity stood at 84.7%.

Another assay concerns the target ROS1 (human) (UniProt P08922). Described as above. The following applies: compound 0.5 µM; ATP 10 µM.
In the case of `Nc1nnc2[nH]c3ccccc3nc1-2`, the residual activity came out at 106%.

Consider `Cn1sc(=O)n(Cc2ccccc2)c1=O`, for which the residual activity came to 103%.

For the compound `CN(C)C[C@H]1CCn2c(c(C3=C(c4cn(C)c5ccccc45)C(=O)NC3=O)c3ccccc32)C1`, the residual activity turned out to be 87.1%.
